Test results published in US9738932B2, “Biomarkers for cardiovascular side-effects induced by cox-2 inhibitory compounds” (FIRALIS SAS, priority 2005, dated 2017).

Test system: mRNA expression in cardiovascular tissues
Assay: Affymetrix GeneChip mRNA expression profiling of monkey tissues (iliac vein, pulmonary vein, aorta, carotid artery, heart) after two-week oral-gavage treatment
[1] = iliac vein, group avg, Vioxx without A60055

Method: Administration of compounds. A two-week oral-gavage treatment with the Cox-2 specific inhibitor COX189 (Lumiracoxib®, Novartis) in comparison with rofecoxib (Vioxx®, Merck), and celecoxib (Celebrex®, Pharmacia/Pfizer), and with the nonselective NSAID, diclofenac (Voltaren®, Novartis) was performed. […] The test items were administered daily at doses of 100 mg/kg/day, except Vioxx® which was administered at 50 mg/kg/day.
Gene expression profiles. After a period of time (e.g., four weeks) of compound/drug administration, the treated animals are necropsied. 120 tissues are dissected and rapidly snap-frozen for genomics analysis. Organ samples are isolated for histopathological examinations and for gene expression localizations, such as by in situ hybridization.
Gene expression profiles have been generated using the Affymetrix microarray technology. (i) RNA extraction and purification: Briefly, total RNA was obtained by acid guanidinium thiocyanate-phenol-chloroform extraction (Trizol®, Invitrogen Life Technologies, San Diego, Calif.) from each frozen tissue section and the total RNA was then purified on an affinity resin (Rneasy®, Qiagen) according to the manufacturer's instructions. Total RNA was quantified by the absorbance at λ=260 nm (A260 nm) and the purity was estimated by the ratio A260 nm/A280 nm. Integrity of the RNA molecules was confirmed by non-denaturing agarose gel electrophoresis. RNA was stored at −80° C. until analysis. […] (ii) GeneChip® experiment: All GeneChip® experiments were conducted in the Genomics Factory EU following recommendations by the manufacturer of the GeneChip® system (Affymetrix, Expression Analysis Technical Manual (Affymetrix, Santa Clara, Calif., 2005). Human U133A genome arrays were used for transcript expression analysis. Double stranded cDNA was synthesized with a starting amount of approximately 5 μg full-length total RNA using the Superscript Choice System (Invitrogen Life Technologies) in the presence of a T7-(dT) 24 DNA oligonucleotide primer. Following synthesis, the cDNA was purified by phenol/chloroform/isoamyl alcohol extraction and ethanol precipitation. The purified cDNA was then transcribed in vitro using the BioArray® High Yield RNA Transcript Labeling Kit (ENZO) in the presence of biotinylated ribonucleotides form biotin labelled cRNA. The labelled cRNA was then purified on an affinity resin (Rneasy, Qiagen), quantified and fragmented. An amount of approximately 10 μg labelled cRNA was hybridized for approximately 16 hours at 45° C. to an expression probe array. The array was then washed and stained twice with streptavidin-phycoerythrin (Molecular Probes) using the GeneChip Fluidics Workstation 400 (Affymetrix). The array was then scanned twice using a confocal laser scanner (GeneArray Scanner®, Agilent) resulting in one scanned image. This resulting “.dat-file” was processed using the MASS program (Affymetrix) into a “.cel-file”. The “.cel file” was then transferred to tan Affymetrix GeneChip Laboratory Information Management System (LIMS) database, which is connected to a UNIX Sun Solaris server through a network filing system that allows for the average intensities for all probes cells (CEL file) to be downloaded into an Oracle database (NPGN). Raw data was converted to expression levels using a “target intensity” of 100. […] The data were checked for quality and loaded in the GeneSpring® software versions 5.0 (Silicon Genetics, Calif., US) for statistical analysis.
Quality control analysis of transcriptome data: The following quality measures were analysed for each sample: Scaling factor, background, percent present calls, AFFX-GAPDH 3′: AFFX-GAPDH 5′-ratio, AFFX-GAPDH 3′ variance, AFFX-Beta-actin 3′: AFFX-Beta-actin 5′-ratio.

## CS(=O)(=O)c1ccc(C2=C(c3ccccc3)C(=O)OC2)cc1 [Vioxx®, rofecoxib]
[1]
  HFE (211866_x_at) avg fold change vs control: 1.0 fold
  HHL (203020_at) avg fold change vs control: 1.1 fold
  HLA-A (211528_x_at) avg fold change vs control: 1.3 fold
  HLA-A (211529_x_at) avg fold change vs control: 1.2 fold
  HLA-A (211530_x_at) avg fold change vs control: 1.8 fold
  HLA-A (215313_x_at) avg fold change vs control: 1.3 fold
  HLA-B (208729_x_at) avg fold change vs control: 1.2 fold
  HLA-B (209140_x_at) avg fold change vs control: 1.1 fold
  HLA-B (211911_x_at) avg fold change vs control: 1.4 fold
  HLA-C (208812_x_at) avg fold change vs control: 1.3 fold
  HLA-C (214459_x_at) avg fold change vs control: 1.4 fold
  HLA-C (216526_x_at) avg fold change vs control: 1.3 fold
  HLA-DMA (217478_s_at) avg fold change vs control: 1.1 fold
  HLA-DMB (203932_at) avg fold change vs control: 1.1 fold
  HLA-DQA1 (212671_s_at) avg fold change vs control: 1.0 fold
  HLA-DQB1 (209823_x_at) avg fold change vs control: 0.9 fold
  HLA-DQB1 (211654_x_at) avg fold change vs control: 1.0 fold
  HLA-DQB1 (211656_x_at) avg fold change vs control: 1.0 fold
  HLA-DQB2 (212998_x_at) avg fold change vs control: 1.2 fold
  HLA-DRA (208894_at) avg fold change vs control: 1.0 fold
  HLA-DRA (210982_s_at) avg fold change vs control: 1.0 fold
  HLA-DRB1 (215193_x_at) avg fold change vs control: 1.2 fold
  HLA-DRB3 (209312_x_at) avg fold change vs control: 1.1 fold
  HLA-DRB6 (217362_x_at) avg fold change vs control: 1.2 fold
  HLA-E (200905_x_at) avg fold change vs control: 1.3 fold
  HLA-E (217456_x_at) avg fold change vs control: 1.2 fold
  HLA-F (204806_x_at) avg fold change vs control: 1.1 fold
  HLA-F (221875_x_at) avg fold change vs control: 1.2 fold
  ICAM1 (202638_s_at) avg fold change vs control: 0.8 fold
  ICAM1 (215485_s_at) avg fold change vs control: 0.9 fold
  ICSBP1 (204057_at) avg fold change vs control: 1.4 fold
  IFI27 (202411_at) avg fold change vs control: 3.8 fold
  IFI30 (201422_at) avg fold change vs control: 1.0 fold
  IFI44 (214453_s_at) avg fold change vs control: 2.5 fold
  IFIT1 (203153_at) avg fold change vs control: 1.5 fold
  IFIT2 (217502_at) avg fold change vs control: 1.3 fold
  IFIT4 (204747_at) avg fold change vs control: 0.9 fold
  IFITM2 (201315_x_at) avg fold change vs control: 1.1 fold
  IFITM3 (212203_x_at) avg fold change vs control: 1.4 fold
  IGF1 (209541_at) avg fold change vs control: 0.9 fold
  IGFBP4 (201508_at) avg fold change vs control: 0.5 fold
  IL1A (208200_at) avg fold change vs control: 1.1 fold
  IL2RG (204116_at) avg fold change vs control: 1.4 fold
  IL27RA (205926_at) avg fold change vs control: 1.1 fold
  INDO (210029_at) avg fold change vs control: 1.1 fold
  INPP5D (203332_s_at) avg fold change vs control: 1.2 fold
  IRF1 (202531_at) avg fold change vs control: 0.8 fold
  IRF7 (208436_s_at) avg fold change vs control: 1.6 fold
  ISGF3G (203882_at) avg fold change vs control: 1.7 fold
  ITGB2 (202803_s_at) avg fold change vs control: 0.6 fold
  JAK1 (214377_s_at) avg fold change vs control: 1.3 fold
  KLKB1 (206541_at) avg fold change vs control: 1.2 fold
  LAIR1 (208071_s_at) avg fold change vs control: 0.5 fold
  LCK (204890_s_at) avg fold change vs control: 1.5 fold
  LCP2 (205270_s_at) avg fold change vs control: 0.9 fold
  LILRB1 (207857_at) avg fold change vs control: 0.5 fold
  LILRB1 (211100_x_at) avg fold change vs control: 1.3 fold
  LILRB3 (208594_x_at) avg fold change vs control: 0.9 fold
  LILRB3 (210225_x_at) avg fold change vs control: 0.8 fold
  LRMP (204674_at) avg fold change vs control: 1.7 fold
  LY86 (205859_at) avg fold change vs control: 1.5 fold
  LY96 (206584_at) avg fold change vs control: 1.1 fold
  LYN (210754_s_at) avg fold change vs control: 1.0 fold
  MAF (209348_s_at) avg fold change vs control: 1.0 fold
  PCOLCE (202465_at) avg fold change vs control: 0.5 fold
  PLA2G4C (209785_s_at) avg fold change vs control: 1.2 fold
  PLCL2 (216217_at) avg fold change vs control: 1.0 fold
  PLSCR1 (202446_s_at) avg fold change vs control: 1.2 fold
  PRC1 (218009_s_at) avg fold change vs control: 0.7 fold
  PRG1 (201858_s_at) avg fold change vs control: 0.8 fold
  PRG1 (201859_at) avg fold change vs control: 0.8 fold
  PTPN22 (206060_s_at) avg fold change vs control: 1.0 fold
  PTPRC (207238_s_at) avg fold change vs control: 1.3 fold
  SOCS3 (206360_s_at) avg fold change vs control: 0.8 fold
  STAT1 (209969_s_at) avg fold change vs control: 1.7 fold
  STAT1 (AFFX-HUMISGF3A/M97935_5_at) avg fold change vs control: 1.3 fold
  STAT1 (AFFX-HUMISGF3A/M97935_MA_at) avg fold change vs control: 1.3 fold
  STAT1 (AFFX-HUMISGF3A/M97935_MB_at) avg fold change vs control: 1.5 fold
  TAPBP (208829_at) avg fold change vs control: 0.9 fold
  TCTEL1 (201999_s_at) avg fold change vs control: 0.9 fold
  TLR1 (210176_at) avg fold change vs control: 0.9 fold
  TLR2 (204924_at) avg fold change vs control: 0.9 fold
  TNFAIP3 (202643_s_at) avg fold change vs control: 0.8 fold
  TNFAIP3 (202644_s_at) avg fold change vs control: 1.2 fold
  TNFSF6 (210865_at) avg fold change vs control: 1.1 fold
  TNFSF10 (202687_s_at) avg fold change vs control: 1.2 fold
  TNFSF10 (202688_at) avg fold change vs control: 0.9 fold
  TRGC2 (211144_x_at) avg fold change vs control: 1.3 fold
  TRGC2 (216920_s_at) avg fold change vs control: 1.0 fold
  VCAM1 (203868_s_at) avg fold change vs control: 0.8 fold
  XCL1 (206366_x_at) avg fold change vs control: 1.5 fold
  XCL1 (214567_s_at) avg fold change vs control: 1.1 fold
  XLKD1 (219059_s_at) avg fold change vs control: 1.0 fold
  cig5 (213797_at) avg fold change vs control: 1.4 fold
Mainly in iliac and pulmonary veins, monkey #A60055
  expression of CXCL10 and PD-ECGF: strongly induced
Monkey #A60055, 50 mg/kg/day oral gavage, two weeks, pulmonary vein
  increase of CXCL10 mRNA expression in pulmonary vein: 20 fold
Monkey A60055, 50 mg/kg/day oral gavage, two weeks, pulmonary vein
  increase of MCP-1 mRNA expression in pulmonary vein: 150 fold
Most of the cardiovascular tissues
  expression of cPLA2: upregulated
Several tissues
  expression of Toll like receptor 2 and CD14: significantly increased
